We go through three compounds from the supplement of paper PMC7046801.

Where a name gives a salt, the structure may show the parent alone.

Holding throughout (settings): 24 h
Test [1] deals with NHEK immortalized keratinocytes.
The test system is the same in test [2]. The experiment in a line: IC50 cell viability (CellTiter-Glo).
For test [3], the system named is NKTC primary neonatal keratinocytes. The experiment in a line: IC50 cell viability (CellTiter-Glo).
Test [4] has the same test system.

Regarding `Oc1cc(Cl)ccc1Oc1ccc(Cl)cc1Cl` [Triclosan], the results for the “IC50 cell viability (WST-8)” value in test [1] and in test [4] were > 88 µM and 87.4 µM, respectively. The values for the IC50 cell viability in test [2] and in test [3] were 55.1 µM and > 88 µM, respectively.

Regarding `C=CC(=O)OCC(CC)(COC(=O)C=C)COC(=O)C=C` [Trimethylolpropane triacrylate], the “IC50 cell viability (WST-8)” value in test [1] and in test [4] was 24.9 µM each time. The IC50 cell viability in test [2] was 24.9 µM; in test [3], 20.6 µM.

In the case of `CNc1ccc(O)cc1` [p-Methylaminophenol sulfate], the “IC50 cell viability (WST-8)” value in test [1] was found to be 8.53 µM; in test [4] it was 13.9 µM. Besides, the IC50 cell viability was found to be 6.78 µM in test [2] and 24.3 µM in test [3].
